Experimental data published in ChEMBL document CHEMBL1201862, “PubChem BioAssay data set” (2004).
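Following 48 hours of exposure in 96-well plates, responses at five concentrations were used to interpolate endpoints linearly. GI50: concentration for 50% inhibition of growth.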 Calls of active or inactive are those of the source. Cut-off read from the data, not from the text of the source: active = GI50 up to about 1.1 µM and inactive = higher.

How the values were obtained:
Test in all cases: inhibition of tumour cell growth, NCI panel, 48 h
SK-OV-3 = test system: SK-OV-3
UO-31 = test system: UO-31
M14 = test system: M14
MOLT-4 = test system: MOLT-4
TK-10 = test system: TK-10
SF-539 = test system: SF-539
LOX IMVI = test system: LOX IMVI
SNB-19 = test system: SNB-19
CAKI-1 = test system: CAKI-1
HCT-116 = test system: HCT-116
KM12 = test system: KM12
HCC 2998 = test system: HCC 2998
NCI-H460 = test system: NCI-H460
786-0 = test system: 786-0
NCI-H226 = test system: NCI-H226
SF-295 = test system: SF-295
MCF7 = test system: MCF7
SNB-75 = test system: SNB-75
SK-MEL-28 = test system: SK-MEL-28
NCI-H23 = test system: NCI-H23
OVCAR-4 = test system: OVCAR-4
HCT-15 = test system: HCT-15
RXF 393 = test system: RXF 393
RPMI-8226 = test system: RPMI-8226
IGROV-1 = test system: IGROV-1
HOP-92 = test system: HOP-92
K562 = test system: K562
NCI-H522 = test system: NCI-H522
SF-268 = test system: SF-268
SK-MEL-5 = test system: SK-MEL-5
PC-3 = test system: PC-3
Malme-3M = test system: Malme-3M
OVCAR-3 = test system: OVCAR-3
UACC-257 = test system: UACC-257
OVCAR-5 = test system: OVCAR-5
MDA-MB-231 = test system: MDA-MB-231
U-251 = test system: U-251
OVCAR-8 = test system: OVCAR-8
T47D = test system: T47D
BT-549 = test system: BT-549
ACHN = test system: ACHN
COLO 205 = test system: COLO 205
MDA-MB-435 = test system: MDA-MB-435
SK-MEL-2 = test system: SK-MEL-2
SN12C = test system: SN12C
EKVX = test system: EKVX
HOP-62 = test system: HOP-62
A498 = test system: A498
NCI/ADR-RES = test system: NCI/ADR-RES
SW-620 = test system: SW-620
MDA-N = test system: MDA-N
A549 = test system: A549
DU-145 = test system: DU-145
SR = test system: SR
UACC-62 = test system: UACC-62
HL-60 = test system: HL-60
CCRF-CEM = test system: CCRF-CEM
HT-29 = test system: HT-29

c1cc2c(c(-c3c4ccccc4nc4ccccc34)c1)CC1(CC2)OCCO1
GI50 (SK-OV-3): > 100 µM (inactive) | GI50 (UO-31): > 100 µM (inactive) | GI50 (M14): > 100 µM (inactive) | GI50 (MOLT-4): > 100 µM (inactive) | GI50 (TK-10): > 100 µM (inactive) | GI50 (SF-539): > 100 µM (inactive) | GI50 (LOX IMVI): > 100 µM (inactive) | GI50 (SNB-19): > 100 µM (inactive) | GI50 (CAKI-1): > 100 µM (inactive) | GI50 (HCT-116): > 100 µM (inactive) | GI50 (KM12): > 100 µM (inactive) | GI50 (HCC 2998): > 100 µM (inactive) | GI50 (NCI-H460): > 100 µM (inactive) | GI50 (786-0): > 100 µM (inactive) | GI50 (NCI-H226): > 100 µM (inactive) | GI50 (SF-295): > 100 µM (inactive) | GI50 (MCF7): > 100 µM (inactive) | GI50 (SNB-75): > 100 µM (inactive) | GI50 (SK-MEL-28): > 100 µM (inactive) | GI50 (NCI-H23): > 100 µM (inactive) | GI50 (OVCAR-4): > 100 µM (inactive) | GI50 (HCT-15): > 100 µM | GI50 (RXF 393): > 100 µM (inactive) | GI50 (RPMI-8226): > 100 µM (inactive) | GI50 (IGROV-1): > 100 µM (inactive) | GI50 (HOP-92): > 100 µM (inactive) | GI50 (K562): > 100 µM (inactive) | GI50 (NCI-H522): > 100 µM (inactive) | GI50 (SF-268): > 100 µM (inactive) | GI50 (SK-MEL-5): > 100 µM (inactive) | GI50 (PC-3): > 100 µM (inactive) | GI50 (Malme-3M): > 100 µM (inactive) | GI50 (OVCAR-3): > 100 µM (inactive) | GI50 (UACC-257): > 100 µM (inactive) | GI50 (OVCAR-5): > 100 µM (inactive) | GI50 (MDA-MB-231): > 100 µM (inactive) | GI50 (U-251): > 100 µM (inactive) | GI50 (OVCAR-8): > 100 µM (inactive) | GI50 (T47D): > 100 µM (inactive) | GI50 (BT-549): > 100 µM (inactive) | GI50 (ACHN): > 100 µM (inactive) | GI50 (COLO 205): > 100 µM (inactive) | GI50 (MDA-MB-435): > 100 µM (inactive) | GI50 (SK-MEL-2): > 100 µM (inactive) | GI50 (SN12C): > 100 µM (inactive) | GI50 (EKVX): > 100 µM (inactive) | GI50 (HOP-62): > 100 µM (inactive) | GI50 (A498): > 100 µM (inactive) | GI50 (NCI/ADR-RES): > 100 µM (inactive) | GI50 (SW-620): > 100 µM (inactive) | GI50 (MDA-N): > 100 µM (inactive) | GI50 (A549): > 100 µM (inactive)

O=C1C=CC(=O)c2c1ccc1c3ccccc3n(Cc3ccc([N+](=O)[O-])cc3)c21
GI50 (SK-OV-3): > 100 µM (inactive) | GI50 (UO-31): > 100 µM (inactive) | GI50 (DU-145): > 100 µM (inactive) | GI50 (SR): 13.8 µM (inactive) | GI50 (M14): > 100 µM (inactive) | GI50 (MOLT-4): 20.3 µM (inactive) | GI50 (TK-10): > 100 µM (inactive) | GI50 (SF-539): > 100 µM (inactive) | GI50 (SNB-19): > 100 µM (inactive) | GI50 (CAKI-1): > 100 µM (inactive) | GI50 (HCT-116): > 100 µM (inactive) | GI50 (KM12): > 100 µM (inactive) | GI50 (HCC 2998): > 100 µM (inactive) | GI50 (NCI-H460): > 100 µM (inactive) | GI50 (786-0): > 100 µM (inactive) | GI50 (NCI-H226): > 100 µM (inactive) | GI50 (SF-295): > 100 µM (inactive) | GI50 (MCF7): > 100 µM (inactive) | GI50 (SNB-75): > 100 µM (inactive) | GI50 (SK-MEL-28): > 100 µM (inactive) | GI50 (NCI-H23): > 100 µM (inactive) | GI50 (OVCAR-4): > 100 µM (inactive) | GI50 (HCT-15): 70.1 µM | GI50 (RXF 393): > 100 µM (inactive) | GI50 (RPMI-8226): > 10 µM (inactive) | GI50 (IGROV-1): > 100 µM (inactive) | GI50 (K562): 19.7 µM (inactive) | GI50 (NCI-H522): 26.6 µM (inactive) | GI50 (SF-268): > 100 µM (inactive) | GI50 (SK-MEL-5): > 100 µM (inactive) | GI50 (PC-3): > 100 µM (inactive) | GI50 (OVCAR-3): > 100 µM (inactive) | GI50 (UACC-257): > 100 µM (inactive) | GI50 (MDA-MB-231): > 100 µM (inactive) | GI50 (U-251): > 100 µM (inactive) | GI50 (OVCAR-8): > 100 µM (inactive) | GI50 (UACC-62): > 100 µM (inactive) | GI50 (T47D): 52.8 µM (inactive) | GI50 (BT-549): > 100 µM (inactive) | GI50 (ACHN): > 100 µM (inactive) | GI50 (COLO 205): > 100 µM (inactive) | GI50 (MDA-MB-435): > 100 µM (inactive) | GI50 (SN12C): > 100 µM (inactive) | GI50 (EKVX): > 100 µM (inactive) | GI50 (HL-60): 14 µM (inactive) | GI50 (HOP-62): > 100 µM (inactive) | GI50 (NCI/ADR-RES): > 100 µM (inactive) | GI50 (SW-620): 38.7 µM (inactive) | GI50 (MDA-N): > 100 µM (inactive) | GI50 (CCRF-CEM): 10.9 µM (inactive) | GI50 (HT-29): > 100 µM (inactive) | GI50 (A549): > 100 µM (inactive)

CCOP(=O)(OCC)/C(=C\n1c(=S)[nH]c2cc(C)ccc21)C(=O)OC
GI50 (SK-OV-3): > 100 µM (inactive) | GI50 (UO-31): > 100 µM (inactive) | GI50 (DU-145): > 100 µM (inactive) | GI50 (M14): > 100 µM (inactive) | GI50 (MOLT-4): > 100 µM (inactive) | GI50 (TK-10): > 100 µM (inactive) | GI50 (SF-539): > 100 µM (inactive) | GI50 (LOX IMVI): > 100 µM (inactive) | GI50 (SNB-19): > 100 µM (inactive) | GI50 (CAKI-1): > 100 µM (inactive) | GI50 (HCT-116): > 100 µM (inactive) | GI50 (KM12): > 100 µM (inactive) | GI50 (HCC 2998): > 100 µM (inactive) | GI50 (NCI-H460): > 100 µM (inactive) | GI50 (786-0): > 100 µM (inactive) | GI50 (NCI-H226): > 100 µM (inactive) | GI50 (SF-295): > 100 µM (inactive) | GI50 (MCF7): > 100 µM (inactive) | GI50 (SNB-75): > 100 µM (inactive) | GI50 (SK-MEL-28): > 100 µM (inactive) | GI50 (NCI-H23): > 100 µM (inactive) | GI50 (OVCAR-4): > 100 µM (inactive) | GI50 (HCT-15): > 100 µM | GI50 (RXF 393): > 100 µM (inactive) | GI50 (IGROV-1): > 100 µM (inactive) | GI50 (HOP-92): > 100 µM (inactive) | GI50 (SF-268): > 100 µM (inactive) | GI50 (SK-MEL-5): > 100 µM (inactive) | GI50 (OVCAR-3): > 100 µM (inactive) | GI50 (UACC-257): > 100 µM (inactive) | GI50 (OVCAR-5): > 100 µM (inactive) | GI50 (MDA-MB-231): > 100 µM (inactive) | GI50 (U-251): > 100 µM (inactive) | GI50 (OVCAR-8): > 100 µM (inactive) | GI50 (UACC-62): > 100 µM (inactive) | GI50 (T47D): > 100 µM (inactive) | GI50 (BT-549): > 100 µM (inactive) | GI50 (ACHN): > 100 µM (inactive) | GI50 (COLO 205): > 100 µM (inactive) | GI50 (MDA-MB-435): > 100 µM (inactive) | GI50 (SK-MEL-2): > 100 µM (inactive) | GI50 (SN12C): > 100 µM (inactive) | GI50 (EKVX): 45.8 µM (inactive) | GI50 (HL-60): 42.6 µM (inactive) | GI50 (HOP-62): > 100 µM (inactive) | GI50 (A498): > 100 µM (inactive) | GI50 (NCI/ADR-RES): > 100 µM (inactive) | GI50 (SW-620): > 100 µM (inactive) | GI50 (MDA-N): > 100 µM (inactive) | GI50 (HT-29): > 100 µM (inactive) | GI50 (A549): > 100 µM (inactive)
